Measurements published in ChEMBL document CHEMBL4627256, “N-(3,5-Dichloro-4-(2,4,6-trichlorophenoxy)phenyl)benzenesulfonamide: A new dual-target inhibitor of mitochondrial complex II and complex III via structural simplification” (Bioorg Med Chem, 2020).

Assays:
Sus scrofa [1] = species on record: Sus scrofa; assay: Inhibition of porcine heart succinate-cytochrome c reductase at 10 uM using succinate and cytochrome c as substrates by spectrophotometric based assay relative to control
[2] = Inhibition of porcine succinate-cytochrome c reductase using succinate and cytochrome c as substrates by spectrophotometric based assay; design: species or system Sus scrofa
[3] = Inhibition of porcine cytochrome b-c1 complex using DBH2 and cytochrome c as substrates by spectrophotometric based assay; design: species or system Sus scrofa
Sus scrofa [4] = species on record: Sus scrofa; assay: Inhibition of porcine succinate-ubiquinone oxidoreductase at 10 uM using succinate and 2,6-dichloroindophenol as substrates by spectrophotometric based assay relative to control
[5] = Inhibition of porcine succinate-ubiquinone oxidoreductase using succinate and 2,6-dichloroindophenol as substrates by spectrophotometric based assay; design: species or system Sus scrofa
Sus scrofa [6] = species on record: Sus scrofa; assay: Inhibition of porcine cytochrome b-c1 complex at 10 uM using DBH2 and cytochrome c as substrates by spectrophotometric based assay relative to control

Compound	IC50 [2] [µM]	further results
O=S(=O)(Nc1ccc(Oc2c(Cl)cc(Cl)cc2Cl)c(Cl)c1)c1ccccc1	> 10	inhibition (Sus scrofa [1]): 47%
O=S(=O)(Nc1ccc(Oc2ccc(Cl)cc2Cl)cc1)c1ccccc1	9.28	–
O=S(=O)(Nc1cc(Cl)c(Oc2ccc(Cl)cc2Cl)c(Cl)c1)c1ccc(Cl)cc1Cl	1.38	–
COc1ccc(S(=O)(=O)Nc2cc(Cl)c(Oc3c(Cl)cc(Cl)cc3Cl)c(Cl)c2)cc1	1.87	–
O=S(=O)(Nc1ccc(Oc2ccc3ccccc3c2)c(Cl)c1)c1ccccc1	> 10	inhibition (Sus scrofa [1]): 47%
O=S(=O)(Nc1cc(Cl)c(Oc2c(Cl)cc(Cl)cc2Cl)c(Cl)c1)c1ccc(Cl)cc1	0.63	–
O=S(=O)(Nc1cc(Cl)c(Oc2c(Cl)cc(Cl)cc2Cl)c(Cl)c1)c1ccc(C(F)(F)F)cc1	0.53	–
O=S(=O)(Nc1ccc(Oc2ccc(Cl)cc2Cl)c(Cl)c1)c1ccccc1	1.98	–
O=[N+]([O-])c1ccc(S(=O)(=O)Nc2cc(Cl)c(Oc3c(Cl)cc(Cl)cc3Cl)c(Cl)c2)cc1	1.58	–
CC(C)(C)c1ccc(S(=O)(=O)Nc2cc(Cl)c(Oc3c(Cl)cc(Cl)cc3Cl)c(Cl)c2)cc1	0.99	–
O=S(=O)(Nc1cc(Cl)c(Oc2c(Cl)cc(Cl)cc2Cl)c(Cl)c1)c1c(Cl)cc(Cl)cc1Cl	0.22	–
O=S(=O)(Nc1cc(Cl)c(Oc2ccc3ccccc3c2)c(Cl)c1)c1ccccc1	> 10	inhibition (Sus scrofa [1]): 48%
O=S(=O)(Nc1ccc(Oc2ccc(Cl)cc2Cl)c(Cl)c1)c1ccc(Cl)cc1Cl	1.3	–
O=S(=O)(Nc1cc(Cl)c(Oc2ncc(C(F)(F)F)cc2Cl)c(Cl)c1)c1ccccc1	> 10	inhibition (Sus scrofa [1]): 9%
O=[N+]([O-])c1ccc(S(=O)(=O)Nc2cc(Cl)c(Oc3ccc(Cl)cc3Cl)c(Cl)c2)cc1	3.57	–
O=S(=O)(Nc1cc(Cl)c(Oc2c(Cl)cc(Cl)cc2Cl)c(Cl)c1)c1ccc(C(F)(F)F)cc1Cl	1.08	–
O=S(=O)(Nc1ccc(Oc2ccc(Cl)cc2Cl)c(Cl)c1)c1ccc(C(F)(F)F)cc1Cl	1.08	–
O=S(=O)(Nc1cc(Cl)c(Oc2ccc(Cl)cc2Cl)c(Cl)c1)c1c(Cl)cc(Cl)cc1Cl	1.12	–
O=S(=O)(Nc1cc(Cl)c(Oc2ccc(Cl)cc2Cl)c(Cl)c1)c1ccccc1	1.1	–

Compound	IC50 [2] [µM]	further results
O=S(=O)(Nc1ccc(Oc2ccccc2)cc1)c1ccccc1	> 10	inhibition (Sus scrofa [1]): 32%
CO/C=C(/C(=O)OC)c1ccccc1Oc1cc(Oc2ccccc2C#N)ncn1 [AZOXYSTROBIN]	0.29	IC50 [3]: 0.53 µM; inhibition (Sus scrofa [4]): 23%
O=S(=O)(Nc1cc(Cl)c(Oc2c(Cl)cc(Cl)cc2Cl)c(Cl)c1)c1ccccc1	0.08	IC50 [5]: 0.51 µM; IC50 [3]: 3.06 µM
CN(C)S(=O)(=O)n1cnc(S(=O)(=O)Nc2cc(Cl)c(Oc3c(Cl)cc(Cl)cc3Cl)c(Cl)c2)n1	3.2	IC50 [5]: 0.5 µM; IC50 [3]: 35.5 µM
O=S(=O)(Nc1ccc(Oc2ccc(Cl)cc2Cl)cc1)c1ccc(C(F)(F)F)cc1Cl	1.37	–
O=[N+]([O-])c1ccc(S(=O)(=O)Nc2ccc(Oc3ccc(Cl)cc3Cl)cc2)cc1	4.86	–
Cc1ccc(S(=O)(=O)Nc2cc(Cl)c(Oc3c(Cl)cc(Cl)cc3Cl)c(Cl)c2)cc1	1.66	–
O=S(=O)(Nc1ccc(Oc2ccc(Cl)cc2Cl)c(Cl)c1)c1c(Cl)cc(Cl)cc1Cl	1.33	–
O=[N+]([O-])c1ccc(S(=O)(=O)Nc2ccc(Oc3ccc(Cl)cc3Cl)c(Cl)c2)cc1	2.24	–
O=S(=O)(Nc1ccc(Oc2ccc(Cl)cc2Cl)cc1)c1c(Cl)cc(Cl)cc1Cl	1.49	–
O=S(=O)(Nc1cc(Cl)c(Oc2c(Cl)cc(Cl)cc2Cl)c(Cl)c1)c1ccc(F)cc1	0.83	–
O=S(=O)(Nc1ccc(Oc2ccc(Cl)cc2Cl)cc1)c1ccc(Cl)cc1Cl	1.62	–
O=S(=O)(Nc1cc(Cl)c(Oc2c(Cl)cc(Cl)cc2Cl)c(Cl)c1)c1ccc(Cl)cc1Cl	1.03	–
Cc1cccc(S(=O)(=O)Nc2cc(Cl)c(Oc3c(Cl)cc(Cl)cc3Cl)c(Cl)c2)c1	0.38	–
CC(C)CC(C)c1sccc1NC(=O)c1cn(C)nc1C(F)(F)F (centres undefined) [PENTHIOPYRAD]	1.32	IC50 [5]: 1.19 µM; inhibition (Sus scrofa [6]): < 10%
O=S(=O)(Nc1cc(Cl)c(Oc2ccc(Cl)cc2Cl)c(Cl)c1)c1ccc(C(F)(F)F)cc1Cl	1.17	–
Cc1ccccc1S(=O)(=O)Nc1cc(Cl)c(Oc2c(Cl)cc(Cl)cc2Cl)c(Cl)c1	0.8	–
O=S(=O)(Nc1cc(F)c(Oc2c(F)cc(F)cc2F)c(F)c1)c1ccccc1	6.44	IC50 [5]: 2.02 µM; inhibition (Sus scrofa [6]): 40%
Cc1cc(C)c(Oc2c(C)cc(NS(=O)(=O)c3ccccc3)cc2C)c(C)c1	> 10	inhibition (Sus scrofa [1]): 3%
